From US10010541B2, “Modulation of tissue transglutaminase activation in disease” (The Board of Trustees of the Leland Stanford Junior …, priority 2014, dated 2018)
Read-outs that look alike come from different tables or passages of the source.

Assays:
[1] = system: proinflammatory cytokines IL-6, PAI-1 and MIP1α; test: circulating proinflammatory cytokines in LPS-induced murine sepsis (ELISA); assay type: in vivo, mice; details: septic mice (LPS 5 mg/kg iv); 1.5 mg/kg ip level; plasma at 3 hours
Procedure: FIG. 3: The TG2 inhibitor CK996 reduces the proinflammatory cytokine load in septic mice at doses as low as 1.5 mg/kg: The graphs display the absolute circulating levels of the proinflammatory cytokines IL-6, PAI-1 and MIP1α in septic male BL6 mice as a function of the dose of intraperitoneally administered CK996 or ERW1041E. In each graph, the right y-axis depicts the relative levels of the respective cytokines over their background level in our control cohort. All septic mice in this study received lipopolysaccharide (LPS, 5 mg/kg i.v., at t=0) and either a TG2 inhibitor (CK996 or ERW1041E at 50, 15, 5.0 and 1.5 mg/kg i.p., at t=0 and 60 min) in vehicle (PBS with 5% DMSO, 2% Tween-80 and 2.5% hydroxypropyl-beta-cyclodextrin) or, for the septic control cohort, vehicle alone. An additional cohort defining the baseline cytokine levels received only intravenous vehicle and intraperitoneal inhibitor vehicle, respectively. At 3 hours the mice were euthanized and plasma collected in lithium heparin tubes. The levels of the respective proinflammatory cytokines were quantified using commercial ELISA kits according to the manufacturers' instructions. […]
Having established that intraperitoneal administration of CK996 could suppress TG2 activity in septic mice, we next sought to determine whether this pharmacologic intervention had any effect on the circulating levels of the key proinflammatory cytokines in sepsis. To this end, we administered CK996 in doses of 1.5, 5.0, 15 or 50 mg/kg intraperitoneally to septic mice (5 mg/kg LPS, iv) and measured the level of the proinflammatory cytokines IL-6, PAI-1 and MIP1α in plasma that was collected at 3 hours after infusion of LPS.
We therefore co-administered recombinant human thioredoxin protein (10 mg/kg, ip) along with CK996 (50 mg/kg, ip) to septic mice (5 mg/kg, iv) and quantified the load of proinflammatory cytokines as above.

[2] = molecular target: T1, TG2 (Homo sapiens, UniProt P21980); details: cited from earlier work
T1 sequence (P21980 1-687): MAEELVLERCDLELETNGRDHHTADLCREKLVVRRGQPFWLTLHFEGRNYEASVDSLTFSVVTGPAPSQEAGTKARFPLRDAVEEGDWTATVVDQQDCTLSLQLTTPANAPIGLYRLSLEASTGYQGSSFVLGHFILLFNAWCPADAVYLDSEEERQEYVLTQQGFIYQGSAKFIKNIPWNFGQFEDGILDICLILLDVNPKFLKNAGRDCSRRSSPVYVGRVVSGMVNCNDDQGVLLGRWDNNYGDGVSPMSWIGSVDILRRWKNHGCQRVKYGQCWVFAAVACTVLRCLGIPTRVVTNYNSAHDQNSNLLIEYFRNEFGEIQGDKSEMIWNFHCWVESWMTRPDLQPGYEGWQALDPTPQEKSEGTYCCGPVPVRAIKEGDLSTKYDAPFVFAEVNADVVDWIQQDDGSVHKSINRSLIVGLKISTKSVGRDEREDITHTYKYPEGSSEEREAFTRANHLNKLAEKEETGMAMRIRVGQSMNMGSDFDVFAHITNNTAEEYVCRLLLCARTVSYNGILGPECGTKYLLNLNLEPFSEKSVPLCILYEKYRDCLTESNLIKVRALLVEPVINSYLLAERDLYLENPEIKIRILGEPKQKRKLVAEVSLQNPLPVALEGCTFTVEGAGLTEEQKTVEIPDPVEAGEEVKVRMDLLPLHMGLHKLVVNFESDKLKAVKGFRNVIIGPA

[3] = molecular target: T2, TG1 (Homo sapiens, UniProt P22735); details: cited from earlier work
T2 sequence (P22735 1-817): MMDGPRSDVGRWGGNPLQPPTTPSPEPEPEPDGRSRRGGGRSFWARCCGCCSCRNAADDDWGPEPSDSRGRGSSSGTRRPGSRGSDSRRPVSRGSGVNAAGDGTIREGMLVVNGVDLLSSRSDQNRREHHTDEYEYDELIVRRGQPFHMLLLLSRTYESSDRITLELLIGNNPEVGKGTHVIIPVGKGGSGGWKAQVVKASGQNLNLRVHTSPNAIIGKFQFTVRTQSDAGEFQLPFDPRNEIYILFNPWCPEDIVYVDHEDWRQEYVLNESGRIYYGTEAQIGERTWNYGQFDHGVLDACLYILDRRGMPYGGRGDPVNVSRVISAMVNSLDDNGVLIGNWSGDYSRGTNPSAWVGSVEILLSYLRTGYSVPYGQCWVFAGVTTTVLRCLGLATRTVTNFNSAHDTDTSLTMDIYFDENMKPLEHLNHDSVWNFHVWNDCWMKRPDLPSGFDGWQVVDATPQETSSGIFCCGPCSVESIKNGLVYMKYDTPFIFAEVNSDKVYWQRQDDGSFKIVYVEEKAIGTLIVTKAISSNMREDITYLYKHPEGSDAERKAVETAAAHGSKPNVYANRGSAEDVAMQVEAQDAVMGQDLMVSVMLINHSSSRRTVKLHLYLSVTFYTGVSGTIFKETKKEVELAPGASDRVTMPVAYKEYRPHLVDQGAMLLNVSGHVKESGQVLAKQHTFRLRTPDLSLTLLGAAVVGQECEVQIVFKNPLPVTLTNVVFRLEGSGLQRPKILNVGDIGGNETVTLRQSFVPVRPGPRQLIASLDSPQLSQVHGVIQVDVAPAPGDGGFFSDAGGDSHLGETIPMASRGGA

[4] = molecular target: T1, TG2; details: cell culture; cited from earlier work
[5] = molecular target: T3, TG2 (Mus musculus, UniProt P21981); details: poly-I:C induced intestinal injury in mice; cited from earlier work
T3 construct: host or cells: mice (in vivo)
T3 sequence (P21981 1-686): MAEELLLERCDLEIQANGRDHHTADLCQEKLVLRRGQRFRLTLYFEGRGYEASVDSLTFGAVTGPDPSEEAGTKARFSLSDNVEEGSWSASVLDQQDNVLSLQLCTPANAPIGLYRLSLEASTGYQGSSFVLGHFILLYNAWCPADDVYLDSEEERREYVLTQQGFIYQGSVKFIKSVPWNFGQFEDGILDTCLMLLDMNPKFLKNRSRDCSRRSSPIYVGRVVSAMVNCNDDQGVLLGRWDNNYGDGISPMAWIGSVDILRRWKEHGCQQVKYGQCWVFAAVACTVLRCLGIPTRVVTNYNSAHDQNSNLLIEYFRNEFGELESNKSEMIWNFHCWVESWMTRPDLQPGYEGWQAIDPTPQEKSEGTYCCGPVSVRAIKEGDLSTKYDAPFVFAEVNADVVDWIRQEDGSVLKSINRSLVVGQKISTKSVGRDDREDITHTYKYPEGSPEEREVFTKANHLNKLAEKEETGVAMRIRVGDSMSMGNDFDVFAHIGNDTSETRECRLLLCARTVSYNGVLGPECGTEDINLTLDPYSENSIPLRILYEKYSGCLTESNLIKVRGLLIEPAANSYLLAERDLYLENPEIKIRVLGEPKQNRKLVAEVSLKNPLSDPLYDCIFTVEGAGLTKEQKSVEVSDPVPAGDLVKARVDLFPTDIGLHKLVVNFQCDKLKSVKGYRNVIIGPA

[6] = molecular target: T3, TG2; details: cited from earlier work

O=C(NC[C@@H]1CC(Br)=NO1)[C@@H]1CCCN1C(=O)OCc1cnc2ccccc2c1 [ERW1041E]
circulating levels of IL-6, PAI-1 and MIP1α [1]: no effect
potency as inhibitor of TG2 [2]: moderately potent
potency against TG1 relative to TG2 [3]: comparably potent
catalytic activity of TG2 [4]: capable of blocking the catalytic activity of TG2
catalytic activity of TG2 [5]: capable of blocking the catalytic activity of TG2
catalytic activity of TG2 ([6]; hypoxia-induced murine pulmonary hypertension): capable of blocking the catalytic activity of TG2
tolerability ([6]; twice daily administration for several weeks): well tolerated
